Assay results published in US20030199567A1, “Combinations of an alpha-2-delta ligand with a selective inhibitor of cyclooxygenase-2” (priority 2002, published 2003).

Key:
[1] = test system: Experimental Osteoarthritis in Rabbit; assay: Induction of Experimental Osteoarthritis in Rabbit (EOA in Rabbit); assay type: in vivo; settings: conclusion drawn from the expected study
Description: Induction of Experimental Osteoarthritis in Rabbit (“EOA in Rabbit”)
Normal rabbits are anaesthetized and anteromedial incisions of the right knees performed. The anterior cruciate ligaments are visualized and sectioned. The wounds are closed and the animals are housed in individual cages, exercised, and fed ad libitum. Rabbits are given either vehicle (water), a combination comprising valdecoxib and gabapentin, or a combination comprising valdecoxib and 3-(1-aminomethyl-cyclohexylmethyl)-4h-[1,2,4]oxadiazol-5-one hydrochloride (10 rabbits per group). […]
The cartilage changes on the femoral condyles and tibial plateaus are graded separately under a dissecting microscope (Stereozoom, Bausch & Lomb, Rochester, N.Y.). […] The surface area changes are measured and expressed in mm^2. […]
Representative specimens of synovial membrane from the medial and lateral knee compartments are dissected from underlying tissues. […] The average is calculated and considered as a unit for the whole knee. […]
Mean values and SEM are calculated and statistical analysis is done using the Mann-Whitney U-test.

[2] = cited from earlier work

Question: For `Cl.NCC1(Cc2noc(=O)[nH]2)CCCCC1` [3-(1-aminomethyl-cyclohexylmethyl)-4H-[1,2,4]oxadiazol-5-one hydrochloride], which “treatment of cartilage damage by the Alpha-2-delta ligand” value [1] is on record?
Answer: Its value is “effective”.

Question: For `NCC1(CC(=O)O)CCCCC1` [gabapentin], which “treatment of cartilage damage by the Alpha-2-delta ligand” value [1] is on record?
Answer: Its value is “effective”.

Question: Which tolerability ([2]; combined analysis of various clinical studies) does the source give for `Cc1onc(-c2ccccc2)c1-c1ccc(S(N)(=O)=O)cc1` [valdecoxib, 4-(5-methyl-3-phenyl-4-isoxazolyl)-benzenesulfonamide] here?
Answer: Its tolerability is “well tolerated”.

Question: What about the “overall upper gastrointestinal safety profile (ulcers, perforations, obstructions and GI bleeds)” value ([2]; versus conventional NSAIDs such as ibuprofen, diclofenac and naproxen) of the same molecule?
Answer: The value was “significantly better”.
